The text below walks through data of ChEMBL document CHEMBL6120947, “Synthesis and Antiosteoporotic Characterization of Diselenyl Maleimides: Discovery of a Potent Agent for the Treatment of Osteoporosis by Targeting RANKL” (J Med Chem, 2024).

Calls of active or inactive are those of the source. No cut-off for these calls is given here.

Data set [1] can be described thus: Toxicity in OVX-induced osteoporosis C57BL/6 mouse model assessed as pathological change in lung at 10 mg/kg, po administered every other day for 8 weeks by H and E staining based analysis. It counts as organism-based. The following applies: in vivo, 1344 h.
Data set [2] deals with BMDM. Put plainly: Inhibition of osteoclastogenesis in M-CSF/RANKL-induced osteoclast differentiation in C57BL/6J mouse BMDM cells assessed as reduction in I-kappaB-alpha phosphorylation at 1 uM measured upto 60 mins by Western blot analysis. The class given is functional, cell-based. A general note: Immunoblotting shows a protein as a band on a membrane.
Data set [3] concerns Mus musculus. The experiment in a line: Anti-osteoporosis effect in OVX-induced osteoporosis C57BL/6 mouse model assessed as increase in BV/TV value at 10 mg/kg, po administered every other day for 8 weeks by micro-CT analysis. The class given is functional, organism-based.
For data set [4], the system named is Mus musculus. The experiment in a line: Anti-osteoporosis effect in OVX-induced osteoporosis C57BL/6 mouse model assessed as improvement of bone surface in femur at 10 mg/kg, po administered every other day for 8 weeks by H and E staining based analysis. The class given is functional, organism-based.
In data set [5] the test system is BMDM. Put plainly: Inhibition of osteoclastogenesis in M-CSF/RANKL-induced osteoclast differentiation in C57BL/6J mouse BMDM cells assessed as reduction in ERK phosphorylation at 1 uM measured upto 60 mins by Western blot analysis. The class given is functional, cell-based.
Data set [6] in a line: Toxicity in OVX-induced osteoporosis C57BL/6 mouse model assessed as pathological change in spleen at 10 mg/kg, po administered every other day for 8 weeks by H and E staining based analysis. The following applies: in vivo, 1344 h. It counts as organism-based.

As to `O=C1C([Se]c2ccccc2)=C([Se]c2ccccc2)C(=O)N1Cc1ccccc1`, the Activity result in data set [1] was “Non-toxic”; in data set [3], “Active; Displayed Similar Effect With That Exhibited By Alendronate”; in data set [4], “Active; Displayed Similar Effect With That Exhibited By Alendronate”; in data set [6] it was “Non-toxic”. Also, the inhibition result in data set [2] and in data set [5] was “Active” throughout.
